SMILES strings stand for the structures. pIC50: −log10 of the molar value. Like-named read-outs stand apart in the source and are kept apart here.

For ten compounds, IC50 results are on record in paper PMC7718890 (Scientific Reports, 2020).

This assay concerns the target CarD·RNAP binding (CarD association with RPo) (Mycobacterium tuberculosis, UniProt P9WGY7+P9WGY9+P9WJG3, D68C).
Setting [1] is: read-out: CarD-BODIPY-FL assay CCG sample IC50.
Where [2] appears, read: read-out: CarD-BODIPY-FL assay Powder sample IC50.

`COC(=O)c1noc(C)c1C(=O)/C=C/N1CCCCC1` [CCG-42210]: the pIC50 by setting is: under setting [1], 3.97; under setting [2], 4.07.

For the compound `CC(=O)Nc1ccc(NC(=O)c2ccccc2C(=O)O)cn1` [CCG-52160], the pIC50 runs as follows: under setting [1], 4.43; under setting [2], 3.17.

With `O=C(NC(=O)N1CCCC1)C1CCN(c2cnc3ccccc3n2)CC1` [CCG-52363], the pIC50 reads like this: under setting [1], 4.22; under setting [2], 3.70.

Consider `CC(=O)Nc1ccc(NC(=O)c2nccnc2C(=O)O)cn1` [CCG-52573], for which the pIC50 is 4.11 under setting [1] and 3.80 under setting [2].

In the case of `CCC(=O)Nc1cccc2c(NC(=O)CC)cccc12` [CCG-53654], the pIC50 was 4.82 under setting [1] and 3.73 under setting [2].

For the compound `Cc1cc2c(NC(=O)Nc3ccccc3)cccc2nn1` [CCG-237488], under setting [1], the pIC50 is 4.60.

For the compound `CC(=O)c1sc2nsc(SCCN3CCCC3)c2c1N` [CCG-239496], the negative-log IC50 (pIC50) was 4.05 under setting [1] and 4.33 under setting [2].

As to `CN(C)c1ncnc(Oc2ccc(Cl)cc2)c1[N+](=O)[O-]` [CCG-247600], the pIC50 by setting is: under setting [1], 3.60; under setting [2], 3.88.

Consider `O=C(O)c1ccc(-c2nc3ccc(-c4ccc5nc(-c6ccc(C(=O)O)cc6)[nH]c5c4)cc3[nH]2)cc1` [CCG-249580], for which the pIC50 by setting is: under setting [1], 3.58; under setting [2], 3.69.

In the case of `NC(=O)c1ccc(CC(=O)c2ccc(Cl)cc2)cc1` [CCG-251660], the negative logarithm of the IC50 (pIC50) is, setting by setting: under setting [1], 3.97; under setting [2], 4.43.
